The results in this text go back to ChEMBL document CHEMBL4419164, “Methods and compositions for inhibiting cnksr1” (2018).

Broadly, the Kd is a measure of binding affinity in units of concentration. One may read the IC50 as the concentration that gives 50% inhibition. The half-life is the time needed for the level to fall by half in the phase considered. Lower therefore signals fast loss. As usually defined, the Cmax is the maximum level reached in the sampled fluid or tissue.

Each structure is given as a SMILES string. Activity calls are given as the source filed them.

Data set [1] can be described thus: Toxicity in SCID mouse xenografted with human NCI-H2122 cells assessed as induction of weight loss at 200 mg/kg/day dosed via gavage daily for 20 days. The class given is organism-based. Conditions: in vivo, po, 480 h. For orientation: In xenograft studies the graft and the host belong to different species.
For data set [2], the target named is T1, Connector enhancer of kinase suppressor of ras 1 (Homo sapiens, UniProt Q969H4).
T1 sequence (Q969H4 whole entry): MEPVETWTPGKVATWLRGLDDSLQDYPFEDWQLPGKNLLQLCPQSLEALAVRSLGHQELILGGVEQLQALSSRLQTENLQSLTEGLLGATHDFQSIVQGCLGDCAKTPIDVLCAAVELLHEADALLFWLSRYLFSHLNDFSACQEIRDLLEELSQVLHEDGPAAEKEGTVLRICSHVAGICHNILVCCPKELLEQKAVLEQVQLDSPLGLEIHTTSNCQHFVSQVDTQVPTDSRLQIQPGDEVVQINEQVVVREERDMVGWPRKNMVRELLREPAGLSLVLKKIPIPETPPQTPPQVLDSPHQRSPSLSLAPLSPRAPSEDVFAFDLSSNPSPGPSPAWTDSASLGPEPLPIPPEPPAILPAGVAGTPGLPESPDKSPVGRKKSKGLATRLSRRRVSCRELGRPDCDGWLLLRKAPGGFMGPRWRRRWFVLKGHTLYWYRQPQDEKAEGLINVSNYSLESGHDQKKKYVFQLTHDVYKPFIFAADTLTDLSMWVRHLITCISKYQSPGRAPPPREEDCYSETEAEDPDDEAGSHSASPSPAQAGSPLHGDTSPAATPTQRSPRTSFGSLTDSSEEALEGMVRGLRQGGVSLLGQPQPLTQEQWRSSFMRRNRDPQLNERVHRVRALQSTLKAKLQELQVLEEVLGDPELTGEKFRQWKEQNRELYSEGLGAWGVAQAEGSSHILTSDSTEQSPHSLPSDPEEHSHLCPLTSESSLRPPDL
Put plainly: Binding affinity to CNKSR1 PH-domain (unknown origin) by SPR spectroscopy. Conditions: read-out: Kd. Background: In SPR one partner is held on a chip, and binding of the other changes the refractive index at the surface.

A short description of data set [3]: Growth inhibition of human […] cells incubated for 3 days. Conditions: 72 h. Type of data set: functional.
Data set [4] concerns the target T2, Connector enhancer of kinase suppressor of ras 1 (Homo sapiens) (UniProt Q969H4).
T2 sequence (whole entry): T1 sequence (Q969H4 whole entry)
The data set is described as follows: Inhibition of GFP-tagged CNKSR1 (unknown origin) expressed in HEK293T cells assessed as blocking of membrane colocalization of CNKSR1 and mutant-KRas at plasma membrane at 50 uM incubated for 4 hrs by confocal imaging assay. The class given is cell-based.

Data set [5] in a line: Half life in C57BL6 mouse at 250 mg/kg, po dosed via gavage as single administration. Type of data set: ADME, organism-based. Conditions: in vivo.
Data set [6] has as its target T2, Connector enhancer of kinase suppressor of ras 1 (Homo sapiens). Put plainly: Inhibition of CNKSR1 PH-domain (unknown origin) assessed as reduction in c-RAF Ser338 phosphorylation at 25 to 50 uM by cell based Western blot analysis.
In data set [7] the test system is NCI-H2122. Put plainly: Growth inhibition of human NCI-H2122 cells incubated for 3 days. Type of data set: functional, cell-based. The settings on record: NCI-H2122, 72 h.
A short description of data set [8]: Half life in mouse plasma at 50 ug/ml at 37 degC at pH 7.4. The class given is ADME, cell-free.
Data set [9] has as its system HCC515. The data set is described as follows: Growth inhibition of human HCC515 cells incubated for 3 days. The class given is functional, cell-based. The settings on record: HCC515, 72 h.
The subject of data set [10] is HCC515. Put plainly: Growth inhibition of human HCC515 cells relative to control. Type of data set: functional, cell-based.
The subject of data set [11] is NCI-H2122. The data set is described as follows: Growth inhibition of human NCI-H2122 cells relative to control. Type of data set: functional, cell-based.
Data set [12] has as its target T2, Connector enhancer of kinase suppressor of ras 1 (Homo sapiens). Put plainly: Inhibition of CNKSR1 (unknown origin) assessed as reduction in inhibition of KRas signaling effectors by measuring p-MAPK levels at 20 uM by cell based assay.
Data set [13] is described as follows: Drug metabolism in C57BL6 mouse plasma assessed as Cmax for 2-(4-oxo-3-((4-p-tolylthiazol-2-yl)methyl)-3,4-dihydrophthalazin-1-yl)acetic acid at 250 mg/kg, po dosed via gavage as single administration. The class given is ADME, organism-based. Also on record: dose 250 mg/kg, route oral. Conditions: in vivo.
The subject of another data set is HCC95. The data set is described as follows: Growth inhibition of human HCC95 cells incubated for 3 days. Conditions: HCC95, 72 h. Type of data set: functional, cell-based.
The target in data set [14] is T2, Connector enhancer of kinase suppressor of ras 1 (Homo sapiens). Put plainly: Inhibition of CNKSR1 (unknown origin) assessed as reduction in inhibition of KRas signaling effectors by measuring p-AKT levels at 20 uM by cell based assay.
A short description of data set [15]: Plasma concentration in C57BL6 mouse at 250 mg/kg, po dosed via gavage as single administration. Type of data set: ADME, organism-based. The settings on record: in vivo.
For the next data set, the system named is NCI-H1373. The data set is described as follows: Growth inhibition of human NCI-H1373 cells relative to control. Type of data set: functional, cell-based.
The nature of data set [16]: Toxicity in SCID mouse xenografted with human NCI-H2122 cells assessed as induction of observable toxic effects at 200 mg/kg/day dosed via gavage daily for 20 days. The class given is organism-based. Conditions: in vivo, po, 480 h.
In data set [17] the test system is NCI-H2122. Put plainly: Antitumor activity against human NCI-H2122 cells xenografted in SCID mouse assessed as inhibition of tumor growth at 200 mg/kg/day dosed via gavage daily for 20 days relative to control. Type of data set: functional. The settings on record: NCI-H2122, po, 480 h, read-out: TGI.
Another data set concerns A549. Put plainly: Growth inhibition of human A549 cells relative to control. Type of data set: functional, cell-based.
For data set [18], the target named is T3, 3-phosphoinositide-dependent protein kinase 1 (Homo sapiens) (UniProt O15530).
T3 sequence (whole entry): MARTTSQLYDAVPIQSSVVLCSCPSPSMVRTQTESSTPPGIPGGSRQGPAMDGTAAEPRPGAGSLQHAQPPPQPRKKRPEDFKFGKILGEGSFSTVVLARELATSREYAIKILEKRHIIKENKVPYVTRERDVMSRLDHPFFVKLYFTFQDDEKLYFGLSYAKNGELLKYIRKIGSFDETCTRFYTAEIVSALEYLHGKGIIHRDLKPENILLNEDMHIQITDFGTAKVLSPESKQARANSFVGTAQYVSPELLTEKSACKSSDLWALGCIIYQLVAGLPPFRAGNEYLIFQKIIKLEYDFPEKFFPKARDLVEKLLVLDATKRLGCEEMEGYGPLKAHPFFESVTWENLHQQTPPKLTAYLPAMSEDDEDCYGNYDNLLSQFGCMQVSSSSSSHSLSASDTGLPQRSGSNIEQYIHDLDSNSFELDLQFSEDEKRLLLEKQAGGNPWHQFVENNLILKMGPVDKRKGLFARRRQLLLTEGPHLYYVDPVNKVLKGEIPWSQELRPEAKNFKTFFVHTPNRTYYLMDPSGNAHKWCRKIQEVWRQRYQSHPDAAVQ
The data set is described as follows: Binding affinity to PDPK1 PH-domain (unknown origin) at 0.01 to 50 uM by SPR spectroscopy.

Turning to `CCOC(=O)Cc1nn(Cc2nc(-c3ccc(C)cc3)cs2)c(=O)c2ccccc12`, the Activity result in [1] and in data set [16] was “Non-Toxic” throughout. The Kd in [2] was 1.8 to 3.2 µM. The IC50 in data set [3] was 51 µM; in the data set with NCI-H2122 [7], 27 µM; in the data set on HCC515 [9], 70 µM; in the data set on HCC95, > 100 µM. For the same compound, the inhibition result in data set [4], in data set [6], in [12] and in [14] was “Active” each time. In data set [5], this compound gave a half-life of 6 h. The half-life at 50 ug/ml in data set [8] was 6.3 min. For the same compound, the “growth inhibition (GI)” value in the data set on HCC515 [10], with NCI-H2122 [11], in the data set with NCI-H1373 and with A549 was “Active” each time. Also, in [13], the Cmax was found to be 128 µM. Also, the concentration in [15] is 7 µM. Also, the inhibition in vivo at 200 mg/kg/day with NCI-H2122 [17] is 45%. Further, the result in data set [18] was inactive.
